Converted amounts (≈) assume the structure as drawn.
Key:
Assay type in all cases: in vivo
[1] = test system: tobacco cut worm (Spodoptera litura); assay: Field test, tobacco cut worm on cabbage (Table 8); details: 3% dust, 5 kg./10 a., after 7 days, on 20 cabbages
From the text: (§1) A 3% dust of each compound of the present invention was applied, in a proportion of 5 kg./10 a., to the field of cabbage where a large number of tobacco cut worm and diamond-back moth were generated, After 7 days, 20 cabbages were pulled out and the number of insects thereon were checked.

[2] = test system: diamond-back moth (Plutella maculipennis); assay: Field test, diamond-back moth on cabbage (Table 8); details: 3% dust, 5 kg./10 a., after 7 days, on 20 cabbages
From the text: as §1

[3] = test system: barnyard grass (Echinochloa crus-galli); assay: Pre-emergence application, herbicidal effect on barnyard grass (Table 1); set-up: key: 0: not damaged; 5: completely killed; details: 20 days after application, score 0-5
Procedure, shortened: (§2)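 Pre-emergence soil application of wettable powders diluted in water over covered seeds (~10 cm pots). Greenhouse growth; visual 0–5 rating (0 none, 5 dead) at 20 days.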

[4] = test system: large crabgrass (Digitaria sanguinalis); assay: Pre-emergence application, herbicidal effect on large crabgrass (Table 1); set-up: key: 0: not damaged; 5: completely killed; details: 20 days after application, score 0-5
Procedure, shortened: as §2

radish = assay: Pre-emergence application, herbicidal effect on radish (Table 1); set-up: key: 0: not damaged; 5: completely killed; details: 20 days after application, score 0-5
Procedure, shortened: as §2

[5] = test system: redroot pigweed (Amaranthus retroflexus); assay: Pre-emergence application, herbicidal effect on redroot pigweed (Table 1); set-up: key: 0: not damaged; 5: completely killed; details: 20 days after application, score 0-5
Procedure, shortened: as §2

[6] = test system: common purslane (Portulaca oleracea); assay: Pre-emergence application, herbicidal effect on common purslane (Table 1); set-up: key: 0: not damaged; 5: completely killed; details: 20 days after application, score 0-5
Procedure, shortened: as §2

[7] = test system: common lambsquarter (Chenopodium album); assay: Pre-emergence application, herbicidal effect on common lambsquarter (Table 1); set-up: key: 0: not damaged; 5: completely killed; details: 20 days after application, score 0-5
Procedure, shortened: as §2

rice = assay: Water application, phytotoxicity on rice (Table 2); set-up: key: 0: no effect; 1: very slightly affected; 2: slightly affected; 3: moderately affected; 4: considerably affected; 5: completely killed; details: 25 days, score 0-5
Procedure, shortened: (§3)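 Under water-lodged conditions, wettable-powder test compounds are applied to paddy soil carrying transplanted rice (3-leaf) and sown barnyard grass. Activity on these and on spontaneously emerged broad-leaved weeds is graded 0 to 5 twenty-five days later.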

[8] = test system: carmine mite (Tetranychus telavius); assay: Lethal effect on carmine mite, leaf dipping (Table 3); details: foliar, 48 h
Procedure, shortened: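 Kidney bean leaves (2-leaf stage) infested with adult mites dipped 1 min in aqueous wettable-powder solutions. Mortality counted microscopically after 48 h; LC50 derived from mortality.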

[9] = test system: tobacco cut worm (Spondoptera litura); assay: Lethal effect on tobacco cut worm (Table 5); details: tobacco cutworm, larvae on chinese cabbage leaves, 48 h
Method: The present compounds of an emulsifiable concentrate type were applied to leaves of chinese cabbage in the form of an 1000 fold dilute solution. After air-drying, third to fourth instar larvae of tobacco cut worm were released and after 48 hours the death and alive were observed.

nematode = assay: Effect on nematode (Table 7); set-up: tested at 500 ppm; details: 500 p.p.m., 24 hours
Method: 0.5 ml. of a nematode-containing aqueous solution separated from food according to Baermann's method was placed in a test tube with ground stopper containing 0.5 ml. of an aqueous dilute solution of each emulsifiable concentrates of the present compounds. The concentration of the active ingredient in the mixture was adjusted to 500 p.p.m. After 24 hours, the death and alive were observed microscopically to calculate the mortality.

[10] = test system: barnyard grass (Echinochloa crus-galli); assay: Water application, herbicidal effect on barnyard grass (Table 2); set-up: key: 0: not damaged; 5: completely killed; details: 25 days, score 0-5
Procedure, shortened: as §3

[11] = test system: broad-leaved weeds, e.g., monochoria, false pimpernel and toothcup; assay: Water application, herbicidal effect on broad-leaved weeds (Table 2); set-up: key: 0: not damaged; 5: completely killed; details: 25 days, score 0-5
Procedure, shortened: as §3

[12] = test system: carmine mite (Tetranychus telarius); assay: Lethal effect on carmine mite, degree of damage on kidney beans (Table 4); set-up: key: -: damage is hardly increased.; +: damage is slightly increased.; ++: damage is fairly increased.; +++: damage is heavily increased; details: 25% wettable powder, 200 fold dilute solution, another week after application
From the text: About 50 carmine mite adults were made parasitic on leaves of potted kidney beans at a 2-leaves stage which had elapsed 10 days after swing. After a week, the present compounds of a 25% wettable powder type were each applied in the form of a 200 fold dilute solution.

Structure (SMILES)	Herbicidal effect, barnyard grass ([3]; 10 g./a.)	Herbicidal effect, barnyard grass ([3]; 20 g./a.)	Herbicidal effect, barnyard grass ([3]; 40 g./a.)	Herbicidal effect, large crabgrass ([4]; 10 g./a.)	Herbicidal effect, large crabgrass ([4]; 20 g./a.)	Herbicidal effect, large crabgrass ([4]; 40 g./a.)	Herbicidal effect, radish (radish; 10 g./a.)	Herbicidal effect, radish (radish; 20 g./a.)	Herbicidal effect, radish (radish; 40 g./a.)	Herbicidal effect, redroot pigweed ([5]; 10 g./a.)	Herbicidal effect, redroot pigweed ([5]; 20 g./a.)	Herbicidal effect, redroot pigweed ([5]; 40 g./a.)	Herbicidal effect, common purslane ([6]; 10 g./a.)	Herbicidal effect, common purslane ([6]; 20 g./a.)	Herbicidal effect, common purslane ([6]; 40 g./a.)	Herbicidal effect, common lambsquarter ([7]; 10 g./a.)	Herbicidal effect, common lambsquarter ([7]; 20 g./a.)	Herbicidal effect, common lambsquarter ([7]; 40 g./a.)	Phytotoxicity on rice (rice; 10 g/a)	Phytotoxicity on rice (rice; 20 g/a)	other results
COP(=O)(OC)C(O)C(Cl)(Cl)Cl (centres unmarked) [Bipterex, reference compound]																					Number of insects, tobacco cut worm [1]: 19; Number of insects, diamond-back moth [2]: 49
CCCSP(=O)(OCC)SCC(=O)N1CCCCC1C (centres unmarked) [Compound 2, O-ethyl-S-n-propyl-S(2-methylpiperidinocarbomoylmethyl)phosphorodithiolate]	5	5	5	5	5	5	0	0	1	5	5	5	5	5	5	5	5	5	0	1	Phytotoxicity on rice (rice; 40 g/a): 1; LC50 [8]: 4.6 µg/mL (≈ 13.6 µM); Mortality [9]: 100%; Mortality (nematode): 100%; Number of insects, tobacco cut worm [1]: 0; Number of insects, diamond-back moth [2]: 8; Herbicidal effects, barnyard grass ([10]; 10 g/a): 5; Herbicidal effects, barnyard grass ([10]; 20 g/a): 5; Herbicidal effects, barnyard grass ([10]; 40 g/a): 5; Herbicidal effects, broad-leaved weeds ([11]; 10 g/a): 5; Herbicidal effects, broad-leaved weeds ([11]; 20 g/a): 5; Herbicidal effects, broad-leaved weeds ([11]; 40 g/a): 5
CCOP(=O)(SCC(=O)N1CCCCC1C)SC(C)C (centres unmarked) [Compound 3]	5	5	5	5	5	5	0	0	0	4	5	5	5	5	5	5	5	5	0	0	Phytotoxicity on rice (rice; 40 g/a): 0; LC50 [8]: 18.5 µg/mL (≈ 54.5 µM); Mortality [9]: 83.3%; Mortality (nematode): 100%; Number of insects, tobacco cut worm [1]: 1; Number of insects, diamond-back moth [2]: 12; Herbicidal effects, barnyard grass ([10]; 10 g/a): 5; Herbicidal effects, barnyard grass ([10]; 20 g/a): 5; Herbicidal effects, barnyard grass ([10]; 40 g/a): 5; Herbicidal effects, broad-leaved weeds ([11]; 10 g/a): 5; Herbicidal effects, broad-leaved weeds ([11]; 20 g/a): 5; Herbicidal effects, broad-leaved weeds ([11]; 40 g/a): 5
CCOP(=O)(SCC(=O)N1CCCCC1C)SCc1ccc(Cl)cc1 (stereo not drawn) [Compound 49, O-ethyl-S-(4-chlorobenzyl)-S-(2-methylpiperidinocarbamoylmethyl)phosphorodithiolate]	5	5	5	5	5	5	0	0	0	3	4	5	3	4	5	4	4	5	0	0	Phytotoxicity on rice (rice; 40 g/a): 1; Degree of damage [12]: -; Mortality [9]: 75.0%; Mortality (nematode): 100%; Herbicidal effects, barnyard grass ([10]; 10 g/a): 5; Herbicidal effects, barnyard grass ([10]; 20 g/a): 5; Herbicidal effects, barnyard grass ([10]; 40 g/a): 5; Herbicidal effects, broad-leaved weeds ([11]; 10 g/a): 5; Herbicidal effects, broad-leaved weeds ([11]; 20 g/a): 5; Herbicidal effects, broad-leaved weeds ([11]; 40 g/a): 5
CCOP(=O)(SCC(=O)N1CCCCC1C)SCc1ccc(CC)cc1 (centres unmarked) [Compound 53]	4	5	5	5	5	5	0	0	0	3	4	5	3	3	5	3	3	4	0	0	Phytotoxicity on rice (rice; 40 g/a): 0; Degree of damage [12]: -~+; Mortality (nematode): 83.6%; Herbicidal effects, barnyard grass ([10]; 10 g/a): 5; Herbicidal effects, barnyard grass ([10]; 20 g/a): 5; Herbicidal effects, barnyard grass ([10]; 40 g/a): 5; Herbicidal effects, broad-leaved weeds ([11]; 10 g/a): 5; Herbicidal effects, broad-leaved weeds ([11]; 20 g/a): 5; Herbicidal effects, broad-leaved weeds ([11]; 40 g/a): 5

Reference: patent US4015974A, “Amido phosphorothiolates” (priority 1972, dated 1977)
